Read-outs that look alike come from different tables or passages of the source.
How the values were obtained:
[1] = molecular target: T1, Lin28A protein (Homo sapiens, UniProt Q9H9Z2); experiment: Western blotting of Lin28A protein in cancer cell models; assay type: cell-based
T1 construct: in a panel of endogenously LIN28 expressing cancer cell models; endogenous in cells; host or cells: T47D, YP-MEL, BT-12, BT-37, NT-2 (NTERA)
T1 sequence (Q9H9Z2 1-209): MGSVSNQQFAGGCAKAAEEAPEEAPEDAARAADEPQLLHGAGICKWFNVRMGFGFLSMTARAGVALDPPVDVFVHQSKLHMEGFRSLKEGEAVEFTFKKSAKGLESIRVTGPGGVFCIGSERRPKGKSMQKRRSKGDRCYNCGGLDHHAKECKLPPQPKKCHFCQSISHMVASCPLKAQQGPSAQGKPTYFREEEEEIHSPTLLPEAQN
Description: FIG. 5: Compound of formula (I) mixture, containing the two isomers (P1+P2) causes significant reduction in Lin28A protein from 5 μM onwards, in a panel of endogenously LIN28 expressing cancer cell models. […] LIN28A and LIN28B expression profile in pediatric CNS cancer cell lines, 96-hr post-treatment with Compound of formula (I). SDS-PAGE on 10% polyacrylamide gel of total cell lysates from untreated cells harvested at 80-90% confluency. Samples loaded with volumes for 20 μg protein. LIN28A and LIN28B proteins were detected using the anti-LIN28A antibody (#8706; Cell Signaling Technology) and anti-LIN28B antibody (#11965; Cell Signalling Technology) at 1:2000 dilutions. T47D: adult breast cancer (LIN28A expressing); YPMEL: malignant melanoma derived from Neurocutaneous Melanosis (NCM) (Lin28A and Lin28B expressing); BT-12: pediatric atypical-teratoid rhabdoid tumor (AT/RT).
FIG. 7A-C: To determine the differences in the biological activity of the two isomers (P1+P2) of Compound of formula (I), we tested the effects of purified and separated P1 and P2 isomers on the protein expression of Lin28A and Lin28B. (A) YP-MEL (NCM). (B) BT-37 (AT/RT). (C) NT-2 (NTERA) (Testicular cancer).
The proteins were extracted from the same samples as the RNA using the RIPA lysis buffer. The protein extracts (20 μg) were run on 10% SDS-PAGE and transferred on a nitrocellulose blotting membrane 0.22 μm (GE Healthcare) using the Trans-Blot® SD semi-dry transfer devise (Biorad). The proteins were detected using the anti-Lin28A antibody (#8706; Cell Signaling Technology), anti-Lin28B antibody (#11965, Cell Signaling Technology) the anti-beta-actin antibody at respectively 1:2000, 1:2000 and 1:5000 dilutions.

[2] = Solubility; assay type: physicochemical
[3] = test system: BHQ1-pre-let7a and EGFP-Lin28A bound complexes; experiment: FRET assay, displacement of BHQ1-pre-let7a from EGFP-Lin28A; assay type: binding; conditions: at 1 μM; 19B-let7a at 100 nM
Description: This method was adapted from Roos et al (2016). HEK 293-T cells (ATCC) were cultured as monolayers in DMEM GlutaMAX™-1 (Cat #31966-021, Gibco®, Life Technologies) supplemented with 10% of FBS (fetal bovine serum). Stable EGFP-Lin28A HEK 293-T cells were cultured as monolayers in DMEM supplemented with 10% of FBS (fetal bovine serum) and 0.5 mg/ml Geneticin G418 (10131-035, Life Technologies). Transfections were performed according to the manufacturer's protocol with […] (12252-011, Invitrogen, Life Technologies) for siRNAs and JetPEI (101-10, Polyplus transfections) was used for plasmid DNA. […]
160,000 HEK 293 T cells were seeded per well in 6 well plates and transfected with 320 ng pEGFP-C2-Lin28A plasmid according to the experimental setup with the reagents described above and cells were allowed to recover for 48h. […] The EGFP-lin28A| expressing cells were sorted using Fluorescence Activated Cell Sorting (FACS). Finally, larger colonies of individual clones were analyzed for expression levels of EGFP-Lin28A by performing the FRET assay. […]
FRET system (EGFP-Lin28A and 19B-let7a) treated with DMSO was used as positive control. […] The FRET measurements were obtained from the optimized fluorescence parameter. […] The average signal intensity and background fluorescence were corrected with compound self-fluorescence with and without binding buffer.

CC[C@H](C)[C@H](NC(=O)[C@H](Cc1ncc[nH]1)NC(=O)c1cccc(C(N)=O)c1)C(=O)Nc1ccc(O)c(-c2nc3ccccc3s2)c1 [Compound P1]
selectivity relative to the crude mixture containing P1+P2 ([1]; Lin28A inhibition, FIG. 7 versus FIG. 5): 5 times | concentration from which Lin28A is selectively inhibited ([1]; YP-MEL, BT-37, NT-2 cells): ≥ 1 µM | solubility ([2]; DMSO, organic solvent or mixture, read-out: solubility in DMSO): 100 mg/mL | solubility ([2]; organic solvent or mixture, DMSO, freeze dried, RP-HPLC purified P1, read-out: solubility in DMSO): 10 mM | solubility ([2]; water/PBS/culture medium, aqueous buffer, read-out: solubility in water/PBS/culture medium): 0.05 mM | reduction in FRET [3]: 70%
